Test results reported in patent US11053212B2, “Benzimidazole derivatives as bromodomain inhibitors” (GLAXOSMITHKLINE INTELLECTUAL PROPERTY DEVELOPMENT LIMITED, priority 2015, dated 2021).
Structures can show the parent of a compound that is named as a salt.

target: T1, BRD4 BD2 (Homo sapiens, UniProt O60885, Y97A); assay: TR-FRET binding assay, BRD4 BD2 (mutant protein); conditions: 10 nM mutated bromodomain protein, Alexa Fluor647 ligand at Kd, read-out: mean pIC50 in the BRD4 BD2 assay (converted)
T1 construct: BRD4 (1-477) (Y97A) and (Y390A); made in house; host or cells: E. coli (pET15b vector)
Method: Biological Data Time Resolved Fluorescence Resonance Energy Transfer (TR-FRET) Assay
Binding was assessed using a time resolved fluorescent resonance energy transfer binding assay. This utilises a 6 His purification tag at the N-terminal of the proteins as an epitope for an anti-6 His antibody labeled with Europium chelate (PerkinElmer AD0111) allowing binding of the Europium to the proteins which acts as the donor fluorophore.
In the absence of a competing compound, excitation of the Europium causes the donor to emit at λ618 nm which excites the Alexa labelled bromodomain binding compound leading to an increased energy transfer that is measurable at λ647 nM. In the presence of a sufficient concentration of a compound that can bind these proteins, the interaction is disrupted leading to a quantifiable drop in fluorescent resonance energy transfer.
The binding of compounds of the invention to Bromodomains BRD2, BRD3, BRD4 and BRDT was assessed using mutated proteins to detect differential binding to either Binding Domain 1 (BD1) or Binding Domain 2 (BD2) on the bromodomain. […] Therefore in the final assay conditions, binding of the fluoroligand to the mutated domain cannot be detected and subsequently the assay is suitable to determine the binding of compounds to the single non-mutated bromodomain.
Recombinant Human Bromodomains [(BRD2 (1-473) (Y113A) and (Y386A), BRD3 (1-435) (Y73A) and (Y348A) BRD4 (1-477) (Y97A) and (Y390A) and BRDT (1-397) (Y66A) and (Y309A)] were expressed in E coli cells (in pET15b vector for BRD2/3/4 and in pET28a vector for BRDT) with a 6-His tag at the N-terminal. The His-tagged Bromodomain pellet was resuspended in 50 mM HEPES (pH7.5), 300 mM NaCl, 10 mM imidazole & 1 μl/ml protease inhibitor cocktail and extracted from the E coli cells using sonication and purified using a nickel sepharose high performance column, the proteins were washed and then eluted with a linear gradient of 0-500 mM imidazole with buffer 50 mM HEPES (pH7.5), 150 mM NaCl, 500 mM imidazole, over 20 column volumes. Final purification was completed by Superdex 200 prep grade size exclusion column. Purified protein was stored at −80° C. in 20 mM HEPES pH 7.5 and 100 mM NaCl.
All assay components were dissolved in buffer composition of 50 mM HEPES pH7.4, 50 mM NaCl, 5% Glycerol, 1 mM DTT and 1 mM CHAPS. The final concentration of bromodomain proteins were 10 nM and the Alexa Fluor647 ligand was at Kd. These components were premixed and 5 μl of this reaction mixture was added to all wells containing 50 nl of various concentrations of test compound or DMSO vehicle (0.5% DMSO final) in Greiner 384 well black low volume microtitre plates and incubated in dark for 30 minutes at rt. […] of detection mixture containing 1.5 nM final concentration anti-6His Europium chelate was added to all wells and a further dark incubation of at least 30 minutes was performed. Plates were then read on the Envision plate reader, (⋅ex=317 nm, donor ⋅em=615 nm; acceptor ⋅em=665 nm; Dichroic LANCE dual). Time resolved fluorescent intensity measurements were made at both emission wavelengths and the ratio of acceptor/donor was calculated and used for data analysis. All data was normalized to the mean of 16 high (inhibitor control—Example 11 of WO 2011/054846A1) and 16 low (DMSO) control wells on each plate. A four parameter curve fit of the following form was then applied: y=a+((b−a)/(1+(10^x/10^c)^d) Where ‘a’ is the minimum, […], ‘c’ is the pIC50 and […].

IC50, > 50.1 µM:
Cc1cc(-c2nc3cc(CN[C@@H](CC(C)C)C(=O)O)ccc3n2CCCO)c[nH]c1=O [Example 21, (S)-2-(((1-(3-hydroxypropyl)-2-(5-methyl-6-oxo-1,6-dihydropyridin-3-yl)-1H-benzo[d]imidazol-5-yl)methyl)amino)-4-methylpentanoic acid, hydrochloride]
Cc1cc(-c2nc3cc(CN[C@@H](CC(C)C)C(=O)O)ccc3n2C)c[nH]c1=O [Example 24, (S)-4-methyl-2-(((1-methyl-2-(5-methyl-6-oxo-1,6-dihydropyridin-3-yl)-1H-benzo[d]imidazol-5-yl)methyl)amino)pentanoic acid, hydrochloride]
Cc1cc(-c2nc3cc(CN[C@@H](CC(C)C)C(=O)O)ccc3n2CC2CCN(C)CC2)c[nH]c1=O [Example 48, (S)-4-methyl-2-(((2-(5-methyl-6-oxo-1,6-dihydropyridin-3-yl)-1-((1-methylpiperidin-4-yl)methyl)-1H-benzo[d]imidazol-5-yl)methyl)amino)pentanoic acid, bis hydrochloride]
Cc1cc(-c2nc3cc(CN[C@@H](CC(C)C)C(=O)O)ccc3n2C2CCN(C)CC2)c[nH]c1=O [Example 60, (S)-4-methyl-2-(((2-(5-methyl-6-oxo-1,6-dihydropyridin-3-yl)-1-(1-methylpiperidin-4-yl)-1H-benzo[d]imidazol-5-yl)methyl)amino)pentanoic acid, bis-hydrochloride]

target: T2, recombinant human CES1 (Homo sapiens, UniProt P23141); assay: Hydrolysis by hCES-1 (HPLC assay); format: in vitro ADME; conditions: 50 μM test compound, 50 nM CES1, 20° C., pH 7.5
T2 construct: Recombinant human CES1 (Gly18-Glu563, bearing a polyhistidine tag at the C-terminus); polyhistidine (C); purchased Novoprotein, Summit, N.J., USA C450; host or cells: human cells
T2 sequence (P23141 18-563): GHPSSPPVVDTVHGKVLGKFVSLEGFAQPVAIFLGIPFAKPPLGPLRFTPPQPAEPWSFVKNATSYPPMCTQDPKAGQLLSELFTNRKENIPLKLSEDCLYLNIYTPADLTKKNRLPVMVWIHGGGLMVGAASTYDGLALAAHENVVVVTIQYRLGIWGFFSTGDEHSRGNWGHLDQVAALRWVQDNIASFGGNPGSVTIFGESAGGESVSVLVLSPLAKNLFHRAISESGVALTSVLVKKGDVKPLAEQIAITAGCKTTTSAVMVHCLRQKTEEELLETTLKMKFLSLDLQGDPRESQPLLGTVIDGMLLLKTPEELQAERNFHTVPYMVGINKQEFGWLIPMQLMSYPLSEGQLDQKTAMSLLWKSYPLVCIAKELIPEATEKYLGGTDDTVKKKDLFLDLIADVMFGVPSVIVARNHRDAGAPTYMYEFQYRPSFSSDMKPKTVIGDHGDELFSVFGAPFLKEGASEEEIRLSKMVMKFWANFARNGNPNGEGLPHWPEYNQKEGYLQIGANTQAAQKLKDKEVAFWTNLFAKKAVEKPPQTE
Method: Hydrolysis of ESM-containing BET inhibitors by carboxylesterase 1 (CES1) is one aspect of delivering a targeted molecule. Rates of hydrolysis of certain compounds of the invention by recombinant human CES1 were determined using an HPLC assay. Recombinant human CES1 (Gly18-Glu563, bearing a polyhistidine tag at the C-terminus) expressed in human cells and purified to homogeneity was obtained from Novoprotein, Summit, N.J., USA (catalogue number C450). Reactions were run in 384 well plates at 20° C. in a buffer of 50 mM sodium phosphate pH 7.5/100 mM NaCl.
Assays used a fixed concentration of test compound (50 μM) and CES1 (50 nM) and a time course of the reaction was obtained by stopping samples at increasing times by addition of formic acid to lower the pH. Stopped samples were subsequently analysed by HPLC to resolve product acid from unhydrolysed ester, using a 50×2 mm C18 5 μM reversed-phase column (Phenomenex Gemini) at a flow rate of 1 ml/min using a gradient of acetonitrile in water, containing 0.1% formic acid. Chromatography was monitored using absorbance at 300 nm wavelength. The % of product formed was determined using integrated peak areas and used to determine the initial rate of the reaction. The specific activity of the CES1 against each test compound under these conditions (in units of μM/min/μM) was obtained by dividing the initial rate of the reaction by the CES1 concentration.

Rate of hydrolysis (specific activity of CES1 against test compound), no detectable level of hydrolysis:
Cc1cc(-c2nc3cc(CN[C@H](C(=O)OCC(C)C)[C@@H](C)O)ccc3n2C[C@H]2CN(C)CCO2)cn(C)c1=O (single isomer, unassigned) [Example 162a]
Cc1cc(-c2nc3cc(CN[C@H](C(=O)OC4CCCC4)C(C)C)ccc3n2CC2CCOCC2)c[nH]c1=O [Example 16, (S)-cyclopentyl 3-methyl-2-(((2-(5-methyl-6-oxo-1,6-dihydropyridin-3-yl)-1-((tetrahydro-2H-pyran-4-yl)methyl)-1-benzo[d]imidazol-5-yl)methyl)amino)butanoate]
Cc1cc(-c2nc3cc(CN[C@H](C(=O)OC4CCCC4)[C@@H](C)O)ccc3n2CC2CCOCC2)c[nH]c1=O [Example 138, (2S,3R)-cyclopentyl 3-hydroxy-2-(((2-(5-methyl-6-oxo-1,6-dihydropyridin-3-yl)-1-((tetrahydro-2H-pyran-4-yl)methyl)-1H-benzo[d]imidazol-5-yl)methyl)amino)butanoate]
Cc1cc(-c2nc3cc(CN[C@H](C(=O)OC4CCCC4)[C@@H](C)O)ccc3n2CC2CCOCC2)cn(C)c1=O [Example 156, (2S,3R)-cyclopentyl 2-(((2-(1,5-dimethyl-6-oxo-1,6-dihydropyridin-3-yl)-1-((tetrahydro-2H-pyran-4-yl)methyl)-1H-benzo[d]imidazol-5-yl)methyl)amino)-3-hydroxybutanoate]
Cc1cc(-c2nc3cc(CN[C@H](C(=O)OC(C)(C)C)[C@@H](C)O)ccc3n2CC2CCOCC2)cn(C)c1=O [Example 212, (2S,3R)-tert-butyl 2-(((2-(1,5-dimethyl-6-oxo-1,6-dihydropyridin-3-yl)-1-((tetrahydro-2H-pyran-4-yl)methyl)-1H-benzo[d]imidazol-5-yl)methyl)amino)-3-hydroxybutanoate]
Cc1cc(-c2nc3cc(CN[C@H](C(=O)O[C@H]4CCOC4)[C@@H](C)O)ccc3n2CC2CCOCC2)cn(C)c1=O [Example 214]
COC[C@H](C)n1c(-c2cc(C)c(=O)n(C)c2)nc2cc(CN[C@H](C(=O)O[C@H]3CCOC3)[C@@H](C)O)ccc21 [Example 216]
